In paper PMC4169579, “Proteolytic Activity of Prostate-Specific Antigen (PSA) towards Protein Substrates and Effect of Peptides Stimulating PSA Activity” (PLoS ONE, 2014):
Positions of bridges follow the written chain, without caps; N, C: chain ends. Residues, ends and D or L forms follow the SMILES beside them. No end group written: not given here.

Assays:
PSA [1] = biological target: T1, PSA (Homo sapiens, UniProt P07288); assay: Enzyme kinetics of PSA with fluorogenic peptide substrate; format: biochemical
T1 construct: from tissue; host or cells: pooled human seminal fluid
T1 sequence (P07288 25-261): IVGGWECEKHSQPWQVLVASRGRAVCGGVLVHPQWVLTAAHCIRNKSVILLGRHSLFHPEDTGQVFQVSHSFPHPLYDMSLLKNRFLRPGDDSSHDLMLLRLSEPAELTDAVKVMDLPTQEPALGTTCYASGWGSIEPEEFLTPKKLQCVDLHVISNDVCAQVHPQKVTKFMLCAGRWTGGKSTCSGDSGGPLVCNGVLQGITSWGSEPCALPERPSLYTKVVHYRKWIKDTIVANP
Protocol: (§1) The major form of active PSA (isoform PSA-B) was purified from pooled human seminal fluid by immunoaffinity chromatography followed by anion exchange chromatography. Semenogelins I and II were isolated from human seminal fluid as previously described, but instead of alkylating the proteins, the reducing agent 30 mM dithiothreitol (Sigma-Aldrich, St. Louis, MO) was included in all buffers during purification. Semenogelins were stored in the purification buffer containing 2 M urea and 5 mM EDTA at −70°C. Prior to cleavage by PSA, the buffer was exchanged to 50 mM Tris, pH 7.7, containing 0.15 M NaCl (TBS), with Amicon Ultra centrifugal filter units (MW cut-off 30 kDa) (Millipore, Cork, Ireland) at 4°C, and protein concentration was determined by measuring absorbance at 280 nm.
(§2) The proteolytic activity of PSA towards small peptide substrates was compared with two different substrates. Both assays were performed in 96-well microplates (PerkinElmer, Turku, Finland) with duplicates in two separate experiments (n = 2) in TBS buffer containing 1 g/l bovine serum albumin (0.1% BSA-TBS). The chromogenic chymotrypsin substrate S-2586 (MeO-Suc-Arg-Pro-Tyr-pNA·HCl) (Chromogenix Instrumentation Laboratory, Milan, Italy) at 0.125–5 mM concentration or 0.125–2 mM fluorogenic PSA substrate 4-morpholinecarbonyl-HSSKLQ-AMC (7-amido-4-methylcoumarin) (custom peptide from JPT Peptide Technologies GmbH, Berlin, Germany) were added to the wells together with 175 nM (5 µg/ml) PSA. The absorbance was measured at 405 nm immediately and at 5 min intervals for 30 min and fluorescence at 355/460 nm (excitation/emission) after 10 min, 20 min, 40 min, 1 h, 2 h and 4 h incubation at room temperature with a Victor 1420 Multilabel plate reader (PerkinElmer). In the fluorogenic assays all wells contained 5% dimethyl sulfoxide (DMSO).
The maximum velocity of the reaction (Vmax) and the Michaelis constant (Km), i.e., substrate concentration at which the reaction rate is half of the maximum, were evaluated for PSA with both peptide substrates using Sigma Plot 11 with the Enzyme Kinetics Module 1.3 (SYSTAT Software, Inc., San Jose, CA) and the catalytic constant (kcat), i.e., the number of substrate molecules converted to product per time unit, was calculated from the equation kcat = Vmax/[PSA]. The absorbance was converted to molar concentration with the Lambert-Beer equation (A = εcl), using the molar absorptivity of pNA (εpNA = 8800 M^−1cm^−1). Fluorescence (counts per second, cps) was transformed to molar concentrations with SigmaPlot by means of a standard curve for 7-amido-4-methylcoumarin (AMC, Sigma-Aldrich).

PSA [2] = biological target: T1, PSA; assay: Stimulation of PSA activity by peptides, chromogenic substrate; format: biochemical; details: for Emax / EC50: 350 nM PSA preincubated with 0.35–350 µM peptide 30 min room temperature, 0.2 mM chromogenic substrate S-2586, mean ± SD, n = 2; for Emax: read-out: Stimulation (maximal stimulation capacity as compared to PSA alone, Vmax (peptide+PSA)/V(PSA)); for EC50: read-out: [peptide]½Vmax (peptide concentration with half-maximal stimulation)
Protocol: as §1
(§3) Peptides that bind to PSA and stimulate its activity have previously been identified by phage display. […] The purity of the peptides as determined by HPLC was over 95% in all batches. We have not observed any significant variation in the capacity of the peptides to stimulate the PSA activity between different peptide batches and suppliers.
as §2
(§4) The effect of the PSA-stimulating peptides on the activity of PSA was characterized with chromogenic and fluorogenic substrates in two (n = 2) and three (n = 3) separate experiments, respectively. PSA (350 nM) was first preincubated with peptides (0.35–350 µM) for 30 min at room temperature. Then 0.2 mM chromogenic or 0.3 mM fluorogenic substrate was added and absorbance or fluorescence was measured as described above. Fluorogenic assays with the peptides were performed in black 384-well microplates (Corning Inc., Corning, NY) and all wells contained 0.75% DMSO. The velocity of the reaction (V) was calculated from the change of absorbance/min or fluorescence/min at the linear phase of the reaction and converted to molar concentration as described above. Vmax (peptide + PSA), i.e., the maximal velocity of the reaction with increasing peptide concentrations and given PSA and substrate concentrations, was determined using SigmaPlot, fitting the data to f = y0+a*(1−exp(−b*x)) using non-linear regression. The maximal stimulatory capacity of the peptide, Vmax (peptide+PSA)/V(PSA), was calculated. The peptide concentrations at which the stimulation of PSA was half of the maximum ([peptide]½Vmax) and at which PSA activity was increased two-fold when compared to PSA alone ([peptide]2V) were also determined.

PSA [3] = biological target: T1, PSA; assay: Stimulation of PSA activity by peptides, fluorogenic substrate; format: biochemical; details: 350 nM PSA preincubated with 0.35–350 µM peptide 30 min room temperature, 0.3 mM fluorogenic substrate, 0.75% DMSO, mean ± SD, n = 3; for Emax: read-out: Stimulation (maximal stimulation capacity as compared to PSA alone, Vmax (peptide+PSA)/V(PSA)); for EC50: read-out: [peptide]½Vmax (peptide concentration with half-maximal stimulation)
Protocol: as §1, §3
The proteolytic activity of PSA towards small peptide substrates was compared with two different substrates. Both assays were performed in 96-well microplates (PerkinElmer, Turku, Finland) with duplicates in two separate experiments (n = 2) in TBS buffer containing 1 g/l bovine serum albumin (0.1% BSA-TBS). […] The absorbance was measured at 405 nm immediately and at 5 min intervals for 30 min and fluorescence at 355/460 nm (excitation/emission) after 10 min, 20 min, 40 min, 1 h, 2 h and 4 h incubation at room temperature with a Victor 1420 Multilabel plate reader (PerkinElmer). […]
as §4, with “PSA (350 nM) was first preincubated with peptides (0.35–350 µM) for 30 min at room temperature.” left out, “Fluorogenic assays with the peptides were performed in black 384-well microplates (Corning Inc., Corning, NY) and all wells contained 0.75% DMSO.” left out

PSA [4] = biological target: T1, PSA; assay: Surface plasmon resonance binding of peptides to PSA; details: SPR, peptide 1.2–600 µM, PBS pH 7.4, 25°C
Protocol: The binding kinetics and affinity of the peptides stimulating the activity of PSA were studied by surface plasmon resonance (SPR) on a Biacore T100 instrument using Biacore T100 Control Software 2.0.3 (both from GE Healthcare, Uppsala, Sweden). PSA (20 µg/ml, 0.7 µM) and α-chymotrypsin (20 µg/ml, 0.8 µM) were covalently immobilized on the Series S Sensor Chip CM5 (GE Healthcare) by using amine coupling in 10 mM sodium acetate buffer, pH 5.0. The immobilization levels varied in different experiments between 2000–3900 resonance units (RU) for PSA and 1400–2500 RU for chymotrypsin. Chymotrypsin was used as a reference for PSA, i.e., the binding of peptides to the chymotrypsin surface was subtracted as a non-specific interaction from the binding of peptides to the PSA surface in all measurements.
Binding to PSA was studied at various peptide concentrations (1.2–600 µM) in phosphate buffered saline (PBS), pH 7.4 (Lonza, Verviers, Belgium), containing 6.7 mM PO4 and 0.15 M NaCl, with a flow rate of 40 µl/min at 25°C. Contact time of the peptides with PSA was 60 s and dissociation time 180 s. In all other steps except the peptide binding the running buffer was supplemented with 0.005% surfactant P20 (GE Healthcare). The chip was washed after each measurement cycle with the running buffer, which removed all peptides. The binding data were analyzed using Biacore T100 Evaluation software 2.0.3. […]

PSA [5] = biological target: T1, PSA; assay: Proteolytic cleavage of protein substrates by PSA (SDS-PAGE, silver staining); format: biochemical; details: 0.2 µM PSA, 1 µM substrate, TBS, 37°C; disappearance of full-length band
Protocol: as §1
(§5) Protein LoBind tubes (Eppendorf AG, Hamburg, Germany) were used in all protein degradation experiments.
(§6) PSA (0.2–1 µM) and 0.5–1 µM of each protein substrate were incubated at 37°C for 22 h in TBS buffer. During the incubation, samples of 15 µl were taken at different time points: 0 min, 10 min, 30 min, 2 h, 5 h and 22 h, and stored at −20°C before further analysis.
Immediately after each incubation, reducing 4× SDS-loading buffer (8% SDS), containing 1 M β-mercaptoethanol or 75 mM dithiothreitol, was added to each sample and proteins were denatured at 70°C for 10 min. The samples were immediately analyzed by SDS-PAGE or frozen at −20°C. Frozen samples were heated again at 70°C before loading on the gel. The cleavage of protein substrates by PSA, i.e., the disappearance of the full-length protein bands, was quantified from scanned images of silver stained gels by the measurement of relative optical densities of the protein bands using ImageJ [40]. […]
Proteins were visualized either by silver staining or Western blotting. […] After 30 min incubation in 0.2% AgNO3, the gel was rinsed briefly with water and proteins were detected with development solution, containing 700 µl/l of 37% formaldehyde, 0.001% sodium thiosulfate and 3% anhydrous Na2CO3. […]

IGFBP-3 = assay: Immunofluorometric assay of intact IGFBP-3 after incubation with PSA and peptides; format: biochemical, human; details: 0.2 µM PSA, 2.2 µM IGFBP-3, 37°C, TBS; 22 h in text (24 h in method), n = 2
Protocol: To study the degradation of IGFBP-3 by PSA, we used a sandwich-type immunofluorometric assay (IFMA) that measures only intact IGFBP-3, but not that cleaved by PSA [43], [44]. […] After incubation, the samples were diluted 1∶1000 in IFMA assay buffer and IGFBP-3 concentrations were measured as previously described,[44].

HUVECs = assay: HUVEC tube formation assay on Matrigel; format: cell-based, human
Protocol: Human umbilical vein endothelial cells (HUVECs) were isolated from umbilical cord veins and grown in Endothelial Cell Growth Medium (Promocell, Heidelberg, Germany) with 2% Ultroser G BioSepra serum substitute (PALL BioSepra, Cergy, France) and growth factors EGF and bFGF. For tube formation, HUVECs were grown on top of Matrigel (BD Biosciences) as described previously, [29].
To study the effect of PSA-cleaved protein fragments, 0.08 µM nidogen-1 or 0.4 µM galectin-3 (10 µg/ml each) were first incubated with 1 µM PSA for 24 h at 37°C in PBS (Lonza). Then PSA activity was blocked by one-hour incubation at room temperature with 2 µM monoclonal antibody 5C7 [38]. The mixture containing nidogen-1 or galectin-3 fragments with PSA blocked by antibody or the same amount of intact nidogen-1 or galectin-3 were added together with the cells onto gelled Matrigel and the cells were allowed to form tubular networks for 20 h. Control wells contained either PBS or 1 µM PSA. After overnight incubation, cell culture medium was collected from PBS and PSA control wells for SDS-PAGE and Western blotting. Images of tubular networks (100×magnification) were taken using an Axiovert 200 inverted light microscope connected to an AxioCam digital camera and visualized by AxioVision software (all from Zeiss, Göttingen, Germany).

plasminogen = assay: Plasminogen cleavage control with MMP-3; format: biochemical, human; details: 1 µM MMP-3 or PSA, 1 µM plasminogen, 37°C, 22 h, TBS
Protocol: as §5, §6

In the case of “4-morpholinecarbonyl-HSSKLQ-AMC [Fluorogenic substrate, fluorogenic PSA substrate, AMC = 7-amido-4-methylcoumarin]”, the “kcat/Km compared to literature” value (PSA [1]; compared to that reported by Denmeade et al. [36]) is reported as “about five-fold higher”, the kcat (PSA [1]; kcat = Vmax/[PSA], substrate 0.125–2 mM, 175 nM PSA, 0.1% BSA-TBS, 5% DMSO, room temperature, mean ± SD of two experiments) is reported as 0.19 ± 0.09 s⁻¹ and the Km (PSA [1]; substrate 0.125–2 mM, 175 nM PSA, 0.1% BSA-TBS, 5% DMSO, 355/460 nm, room temperature, 10 min to 4 h, mean ± SD of two experiments) is reported as 1580 ± 40 µM. It also gave a kcat/Km (PSA [1]; substrate 0.125–2 mM, 175 nM PSA, 0.1% BSA-TBS, 5% DMSO, room temperature, mean ± SD of two experiments) of 122.0±59.4 s^−1M^−1.
With `CC(C)C[C@@H]1NC(=O)[C@H](Cc2ccc(O)cc2)NC(=O)[C@H](CC(=O)O)NC(=O)[C@H](Cc2ccc(O)cc2)NC(=O)[C@H](CC(N)=O)NC(=O)[C@H](Cc2c[nH]cn2)NC(=O)[C@H](C)NC(=O)[C@H](Cc2ccccc2)NC(=O)[C@H](C(C)C)NC(=O)[C@@H](N)CSSC[C@@H](C(N)=O)NC(=O)[C@H](C(C)C)NC1=O` [B2-NH2] (H-CVFAHNYDYLVC-NH2; disulfide 1-12) the Emax (PSA [2]) was 400 ± 14%, the EC50 (PSA [2]) was 5.13 ± 1.43 µM and the Emax (PSA [3]) was 391 ± 11%. The EC50 (PSA [3]) was 4.78 ± 1.55 µM.
`CC[C@H](C)[C@@H]1NC(=O)[C@@H]2CSSC[C@H](NC(=O)[C@H](Cc3c[nH]cn3)NC(=O)[C@H](Cc3c[nH]cn3)NC(=O)[C@H](CCC(=O)O)NC1=O)C(=O)N[C@@H](Cc1c[nH]c3ccccc13)C(=O)N[C@@H]([C@@H](C)O)C(=O)N[C@H](C(=O)O)CSSC[C@H](N)C(=O)N[C@@H](C(C)C)C(=O)N[C@@H](C)C(=O)N[C@@H](Cc1ccc(O)cc1)C(=O)N2` [C4] (H-CVAYCIEHHCWTC-OH; disulfide 1-13, 5-10) gave an Emax (PSA [2]) of 785 ± 7%, an EC50 (PSA [2]) of 5.62 ± 2.17 µM and an Emax (PSA [3]) of 610 ± 8%. The EC50 (PSA [3]) was 3.72 ± 0.5 µM.
In the case of “CVFAHNADALVC (disulfide 1-12 (inferred)) [B2-NH2-control]”, the “binding to PSA” value (PSA [4]) is reported as “All peptides, except the inactive B2-NH2-control peptide, bound to PSA” and the “Stimulation of PSA activity (summary in words)” value (PSA [2]; towards chromogenic and fluorogenic peptide substrates (Figure 1, Table 2), B2 and B2-NH2-control: Figure 1A (chromogenic)) is reported as “did not stimulate PSA activity at all”.
In the case of “IGFBP-3: recombinant human insulin-like growth factor-binding protein-3”, the “time for degradation of 50% of the protein” value (PSA [5]) is reported as 22 h.
With “PSA: major form of active PSA (isoform PSA-B) purified from pooled human seminal fluid” the “decrease of the content of intact IGFBP-3” value (IGFBP-3) was 50%, the tube formation (HUVECs; 1 µM PSA, 20 h, HUVECs on Matrigel) was “reduced tube formation” and the “effect of PSA pre-incubation of gelled Matrigel on tube formation” value (HUVECs; overnight pre-incubation of Matrigel with PSA, then PSA inhibited with antibody, Mattsson et al. unpublished data) was “did not inhibit endothelial cell tube formation”. The cleavage of plasminogen (plasminogen) was “but not PSA, cleaved 1 µM plasminogen”.
With fibronectin the “time for degradation of 50% of the protein” value (PSA [5]) was 17 h.
